PubChem BioAssay (NCI)
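Five compound concentrations were applied to cells in 96-well plates for 48 hours; endpoints were derived by simple linear interpolation of the resulting dose-response curve. At the TGI there is no net growth.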

Assays:
Test in all cases: inhibition of tumour cell growth, NCI panel, 48 h
HCT-15 colon = system: HCT-15 colon
UACC-62 melanoma = system: UACC-62 melanoma
NCI-H522 lung = system: NCI-H522 lung
UO-31 renal = system: UO-31 renal
SR leukemia = system: SR leukemia
HL-60(TB) leukemia = system: HL-60(TB) leukemia
RPMI-8226 leukemia = system: RPMI-8226 leukemia
NCI-H460 lung = system: NCI-H460 lung
RXF 393 renal = system: RXF 393 renal
EKVX NSCLC = system: EKVX NSCLC
KM12 colon = system: KM12 colon
SK-MEL-2 melanoma = system: SK-MEL-2 melanoma
U251 CNS = system: U251 CNS
SW-620 colon = system: SW-620 colon
MOLT-4 leukemia = system: MOLT-4 leukemia
HCT-116 colon = system: HCT-116 colon
MALME-3M melanoma = system: MALME-3M melanoma
LOX IMVI melanoma = system: LOX IMVI melanoma
SNB-19 CNS = system: SNB-19 CNS
SF-539 CNS = system: SF-539 CNS
UACC-257 melanoma = system: UACC-257 melanoma
SK-MEL-28 melanoma = system: SK-MEL-28 melanoma
KM20L2 colon = system: KM20L2 colon
SNB-75 CNS = system: SNB-75 CNS
M14 melanoma = system: M14 melanoma
A549 NSCLC = system: A549 NSCLC
OVCAR-4 ovarian = system: OVCAR-4 ovarian
RXF-631 renal = system: RXF-631 renal
HT29 colon = system: HT29 colon
COLO 205 colon = system: COLO 205 colon
HCC-2998 colon = system: HCC-2998 colon
SK-MEL-5 melanoma = system: SK-MEL-5 melanoma
SF-295 CNS = system: SF-295 CNS
XF 498 CNS = system: XF 498 CNS
IGROV1 ovarian = system: IGROV1 ovarian
OVCAR-8 ovarian = system: OVCAR-8 ovarian
OVCAR-3 ovarian = system: OVCAR-3 ovarian
CCRF-CEM leukemia = system: CCRF-CEM leukemia
LXFL 529 NSCLC = system: LXFL 529 NSCLC
OVCAR-5 ovarian = system: OVCAR-5 ovarian
SNB-78 CNS = system: SNB-78 CNS
NCI-H23 lung = system: NCI-H23 lung
K-562 leukemia = system: K-562 leukemia
M19-MEL melanoma = system: M19-MEL melanoma
ACHN renal = system: ACHN renal
SN12C renal = system: SN12C renal
DLD-1 colon = system: DLD-1 colon
CAKI-1 renal = system: CAKI-1 renal
SF-268 CNS = system: SF-268 CNS
NCI-H226 lung = system: NCI-H226 lung
786-0 renal = system: 786-0 renal

Measured: TGI

C/C(O)=C/c1nc2ccccc2[nH]1
78.8 µM: SNB-75 CNS
> 100 µM: all other assays above
